Test results from patent US4292305A, “Antiallergic imidodisulfamides” (SmithKline Corporation, priority 1980, dated 1981).

System: slow reacting substance of anaphylaxis (SRS-A)
Experiment: Inhibition of SRS-A induced contraction of guinea pig ileum
Assay type: cell-based
Conditions: Cavia porcellus, 0.25 h, partially purified SRS-A from guinea pig lung at 40 μg/ml, isolated guinea pig ileum, read-out: antagonism of SRS-A
Procedure: The SRS-A antagonist activity of the compounds of this invention is measured by the ability of the active medicament to inhibit SRS-A induced contraction of guinea pig ileum. In this test system, sections of ileum are resected from guinea pigs and placed in 5 ml. tissue baths containing a modified Tyrode's solution. One end of the tissue is fixed to a glass tissue holder, the other is connected to a force-displacement transducer and the tissue is placed under a tension of 500 mg. Isometric tissue contractions are recorded on a six channel polygraph. Baths are constantly aerated with 95% O2 -5% CO2. After a 20 minute stabilization period a concentration of the appropriate agonist which provides a contraction height of 60-80% of the maximum obtainable to that agonist (as determined from full sequential concentration--response curves in separate experiments) is added to the tissue bath and the response recorded. The procedure is repeated until reproducible responses are obtained. […] Percent inhibition produced by the test compound is calculated by substracting the mean percentage change in control tissue from the mean percentage change in tissues exposed to the test compound. Additional compounds are then evaluated as long as the tissue remains reproducibly responsive to the agonist. […]

SMILES | inhibition at 10 µM (test compound 1×10^-5 M) | inhibition at 50 µM (test compound 5×10^-5 M)
O=S(=O)(NCCCCc1ccccc1)NS(=O)(=O)NCCCCc1ccccc1 [1,5-di-(4-phenylbutyl)-imidodisulfamide] | 40% | 
O=S(=O)(Nc1ccc(Br)cc1)NS(=O)(=O)Nc1ccc(Br)cc1 [1,5-di-(4-bromophenyl)-imidodisulfamide] |  | 47%
